The experiment concerns the target T1, rat brain N-type calcium channel subunits (α1B+α2δ+β1b cDNA subunits) (Rattus norvegicus, UniProt Q02294).
T1 construct: expressed in transfected cells; host or cells: HEK 293
Description: N-type calcium channel block, whole cell patch clamp in transfected HEK 293 cells. Type of experiment: cell-based. As to the method: N-type calcium channel blocking activity was assayed in human embryonic kidney cells, HEK 293, stably transfected with the rat brain N-type calcium channel subunits (α1B+α2δ+β1b cDNA subunits). Alternatively, N-type calcium channels (α1B+α2δ+β1b cDNA subunits), L-type channels (α1C+α2δ+β1b cDNA subunits) and P/Q-type channels (α1A+α2δ+β1b cDNA subunits) were transiently expressed in HEK 293 cells. Briefly, cells were cultured in Dulbecco's modified eagle medium (DMEM) supplemented with 10% fetal bovine serum, 200 U/ml penicillin and 0.2 mg/ml streptomycin at 37° C. with 5% CO2. At 85% confluency cells were split with 0.25% trypsin/1 mM EDTA and plated at 10% confluency on glass coverslips. At 12 hours the medium was replaced and the cells transiently transfected using a standard calcium phosphate protocol and the appropriate calcium channel cDNA's. Fresh DMEM was supplied and the cells transferred to 28° C./5% CO2. Cells were incubated for 1 to 2 days prior to whole cell recording.
Whole cell patch clamp experiments were performed using an Axopatch 200B amplifier (Axon Instruments, Burlingame, Calif.) linked to a personal computer equipped with pCLAMP software. The external and internal recording solutions contained, respectively, 5 mM BaCl2, 10 mM MgCl2, 10 mM HEPES, 40 mM TEACl, 10 mM glucose, 87.5 mM CsCl (pH 7.2) and 108 mM CsMS, 4 mM MgCl2, 9 mM EGTA, 9 mM HEPES (pH 7.2). Currents were typically elicited from a holding potential of −80 mV to +10 mV using Clampex software (Axon Instruments). Typically, currents were first elicited with low frequency stimulation (0.067 Hz) and allowed to stabilize prior to application of the compounds. The compounds were then applied during the low frequency pulse trains for two to three minutes to assess tonic block, and subsequently the pulse frequency was increased to 0.2 Hz to assess frequency dependent block. Data were analyzed using Clampfit (Axon Instruments) and SigmaPlot 4.0 (Jandel Scientific).

The mark [1] stands for this setting: −50 mV, read-out: IC50 @ −50 mV.
Setting [2] is: −80 mV, read-out: IC50 @ −80 mV.

Where two headings read alike, the source gives them in different places.

T1 sequence (Q02294 whole entry): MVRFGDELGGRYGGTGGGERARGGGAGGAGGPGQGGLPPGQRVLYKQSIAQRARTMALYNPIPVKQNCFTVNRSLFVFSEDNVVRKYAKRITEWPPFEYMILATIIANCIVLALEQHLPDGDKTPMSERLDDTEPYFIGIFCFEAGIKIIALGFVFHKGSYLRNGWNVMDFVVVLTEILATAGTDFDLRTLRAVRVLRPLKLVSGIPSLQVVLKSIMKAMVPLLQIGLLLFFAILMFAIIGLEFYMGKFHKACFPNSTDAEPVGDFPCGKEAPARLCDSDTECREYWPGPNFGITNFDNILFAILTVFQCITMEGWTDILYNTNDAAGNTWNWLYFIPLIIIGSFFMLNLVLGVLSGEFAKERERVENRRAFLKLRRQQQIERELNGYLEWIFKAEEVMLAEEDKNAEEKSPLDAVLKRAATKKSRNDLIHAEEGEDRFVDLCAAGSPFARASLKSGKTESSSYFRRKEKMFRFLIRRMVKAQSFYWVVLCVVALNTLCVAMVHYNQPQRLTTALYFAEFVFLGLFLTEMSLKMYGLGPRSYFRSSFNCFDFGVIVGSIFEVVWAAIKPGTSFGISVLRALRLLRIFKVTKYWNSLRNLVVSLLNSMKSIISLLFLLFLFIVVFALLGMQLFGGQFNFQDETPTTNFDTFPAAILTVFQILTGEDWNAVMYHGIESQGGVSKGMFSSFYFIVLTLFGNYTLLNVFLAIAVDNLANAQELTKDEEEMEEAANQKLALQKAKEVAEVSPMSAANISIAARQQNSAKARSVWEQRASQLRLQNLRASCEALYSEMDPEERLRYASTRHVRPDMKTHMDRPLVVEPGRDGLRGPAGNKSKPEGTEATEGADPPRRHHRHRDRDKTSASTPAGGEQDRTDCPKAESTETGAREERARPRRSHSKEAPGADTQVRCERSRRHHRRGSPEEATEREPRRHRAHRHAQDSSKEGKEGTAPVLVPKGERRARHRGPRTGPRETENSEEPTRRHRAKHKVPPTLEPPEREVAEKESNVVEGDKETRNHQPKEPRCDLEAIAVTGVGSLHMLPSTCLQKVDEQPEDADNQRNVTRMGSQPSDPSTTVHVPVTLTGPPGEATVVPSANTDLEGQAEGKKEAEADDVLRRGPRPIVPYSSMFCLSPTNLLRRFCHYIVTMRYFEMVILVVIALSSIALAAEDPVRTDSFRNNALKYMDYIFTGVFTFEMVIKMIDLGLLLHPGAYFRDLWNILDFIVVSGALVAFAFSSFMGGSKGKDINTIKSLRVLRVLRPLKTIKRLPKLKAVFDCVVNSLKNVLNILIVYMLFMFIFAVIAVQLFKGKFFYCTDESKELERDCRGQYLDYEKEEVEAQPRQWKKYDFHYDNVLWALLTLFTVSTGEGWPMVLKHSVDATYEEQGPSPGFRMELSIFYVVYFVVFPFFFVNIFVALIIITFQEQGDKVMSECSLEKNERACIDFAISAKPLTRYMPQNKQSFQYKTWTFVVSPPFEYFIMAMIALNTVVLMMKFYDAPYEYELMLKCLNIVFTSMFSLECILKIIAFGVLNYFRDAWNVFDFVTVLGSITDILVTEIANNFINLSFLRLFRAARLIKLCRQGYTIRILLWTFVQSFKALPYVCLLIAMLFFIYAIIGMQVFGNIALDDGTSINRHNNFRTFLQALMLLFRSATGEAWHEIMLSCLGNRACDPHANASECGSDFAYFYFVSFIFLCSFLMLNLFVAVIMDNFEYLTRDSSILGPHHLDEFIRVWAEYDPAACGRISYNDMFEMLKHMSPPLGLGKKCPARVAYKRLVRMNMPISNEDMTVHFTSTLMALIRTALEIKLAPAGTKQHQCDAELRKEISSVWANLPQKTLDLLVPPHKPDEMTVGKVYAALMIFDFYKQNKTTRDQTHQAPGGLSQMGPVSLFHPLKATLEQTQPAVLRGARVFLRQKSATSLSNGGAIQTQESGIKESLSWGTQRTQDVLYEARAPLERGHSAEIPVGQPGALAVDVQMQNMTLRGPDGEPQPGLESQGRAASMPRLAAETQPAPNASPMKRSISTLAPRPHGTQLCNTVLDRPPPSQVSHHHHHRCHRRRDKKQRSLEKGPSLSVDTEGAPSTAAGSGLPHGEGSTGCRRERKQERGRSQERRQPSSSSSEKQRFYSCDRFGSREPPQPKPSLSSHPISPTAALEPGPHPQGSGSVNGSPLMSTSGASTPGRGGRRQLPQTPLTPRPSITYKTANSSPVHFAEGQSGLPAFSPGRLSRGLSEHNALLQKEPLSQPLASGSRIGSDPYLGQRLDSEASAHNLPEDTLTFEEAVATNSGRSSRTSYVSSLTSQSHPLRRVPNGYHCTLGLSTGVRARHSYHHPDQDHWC
T1 sequence (P54290 25-944 partner limits assumed): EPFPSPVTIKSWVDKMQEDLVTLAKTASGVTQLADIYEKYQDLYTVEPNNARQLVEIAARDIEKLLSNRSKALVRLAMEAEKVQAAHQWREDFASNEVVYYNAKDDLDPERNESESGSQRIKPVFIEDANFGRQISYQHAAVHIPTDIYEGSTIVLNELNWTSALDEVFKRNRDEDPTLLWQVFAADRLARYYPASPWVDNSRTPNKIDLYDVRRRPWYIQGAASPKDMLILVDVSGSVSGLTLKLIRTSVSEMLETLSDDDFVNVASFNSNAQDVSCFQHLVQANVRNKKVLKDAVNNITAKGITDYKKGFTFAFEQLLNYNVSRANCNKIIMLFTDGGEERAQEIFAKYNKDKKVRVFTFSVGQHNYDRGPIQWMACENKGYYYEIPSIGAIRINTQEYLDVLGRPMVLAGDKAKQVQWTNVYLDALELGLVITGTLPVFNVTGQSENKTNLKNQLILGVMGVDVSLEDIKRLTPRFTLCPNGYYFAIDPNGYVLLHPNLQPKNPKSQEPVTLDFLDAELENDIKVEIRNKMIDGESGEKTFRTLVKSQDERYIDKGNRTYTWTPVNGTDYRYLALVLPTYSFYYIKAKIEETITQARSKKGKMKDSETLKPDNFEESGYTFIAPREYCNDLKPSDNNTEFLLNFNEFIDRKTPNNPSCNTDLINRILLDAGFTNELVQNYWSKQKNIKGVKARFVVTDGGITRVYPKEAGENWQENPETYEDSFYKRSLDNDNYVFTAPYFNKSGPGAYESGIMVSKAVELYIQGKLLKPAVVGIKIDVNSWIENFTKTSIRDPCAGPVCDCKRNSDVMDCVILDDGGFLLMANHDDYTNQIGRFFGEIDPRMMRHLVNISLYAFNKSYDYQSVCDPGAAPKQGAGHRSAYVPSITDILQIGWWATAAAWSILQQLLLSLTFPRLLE
T1 sequence (P54290 945-1091 partner limits assumed): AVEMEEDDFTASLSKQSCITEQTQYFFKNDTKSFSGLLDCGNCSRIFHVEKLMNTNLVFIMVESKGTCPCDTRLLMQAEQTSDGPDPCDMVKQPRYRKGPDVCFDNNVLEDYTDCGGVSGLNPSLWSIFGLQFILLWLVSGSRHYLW
T1 sequence (P54283 whole entry partner): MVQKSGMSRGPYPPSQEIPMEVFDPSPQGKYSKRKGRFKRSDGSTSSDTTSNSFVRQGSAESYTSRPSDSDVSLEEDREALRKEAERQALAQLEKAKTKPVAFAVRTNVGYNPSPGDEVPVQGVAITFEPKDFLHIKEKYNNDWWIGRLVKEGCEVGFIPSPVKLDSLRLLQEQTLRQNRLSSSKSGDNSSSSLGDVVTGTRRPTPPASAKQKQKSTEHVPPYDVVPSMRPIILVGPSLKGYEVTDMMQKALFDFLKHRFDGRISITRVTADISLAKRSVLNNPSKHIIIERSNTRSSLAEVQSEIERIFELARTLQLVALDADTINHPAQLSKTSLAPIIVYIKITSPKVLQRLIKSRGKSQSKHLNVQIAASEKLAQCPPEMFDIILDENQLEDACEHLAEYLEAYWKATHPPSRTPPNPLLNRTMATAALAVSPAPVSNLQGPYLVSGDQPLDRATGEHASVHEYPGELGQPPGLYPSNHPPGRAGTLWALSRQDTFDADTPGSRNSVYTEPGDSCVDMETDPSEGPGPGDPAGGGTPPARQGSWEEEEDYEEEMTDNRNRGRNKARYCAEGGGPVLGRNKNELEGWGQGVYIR

Turning to `O=C(CN1CCN(C(c2ccccc2)c2ccccc2)CC1)Nc1nc2ccc(F)cc2s1` [Compound 1, 2-(4-benzhydrylpiperazin-1-yl)-N-(6-fluorobenzo[d]thiazol-2-yl)acetamide], the half-maximal inhibitory concentration (IC50) reads like this: under setting [1], 400 nM; under setting [2], 770 nM.
For `O=C(CN1CCN(C(c2ccc(F)cc2)c2ccc(F)cc2)CC1)Nc1nc2ccc(F)cc2s1` [Compound 2, 2-(4-(bis(4-fluorophenyl)methyl)piperazin-1-yl)-N-(6-fluorobenzo[d]thiazol-2-yl)acetamide], the IC50 under setting [1] came to 490 nM and the IC50 under setting [2] is 920 nM.
In the same order, the values of `O=C(CN1CCN(C(c2ccc(F)cc2)c2ccc(F)cc2)CC1)Nc1nccs1` [Compound 4, 2-(4-(bis(4-fluorophenyl)methyl)piperazin-1-yl)-N-(thiazol-2-yl)acetamide] are 1200 nM and 3400 nM.
In the same order, the values of `Cc1cnc(NC(=O)CN2CCN(C(c3ccccc3)c3ccccc3)CC2)s1` [Compound 5, 2-(4-benzhydrylpiperazin-1-yl)-N-(5-methylthiazol-2-yl)acetamide] are 780 nM and 1950 nM.
For the compound `O=C(CN1CCN(C(c2ccc(F)cc2)c2ccc(F)cc2)CC1)Nc1ncc(Cl)s1` [Compound 8, 2-(4-(bis(4-fluorophenyl)methyl)piperazin-1-yl)-N-(5-chlorothiazol-2-yl)acetamide], the IC50 by setting is: under setting [1], 530 nM; under setting [2], 1040 nM.
On to `Cc1ccc(-c2csc(NC(=O)CN3CCN(C(c4ccccc4)c4ccccc4)CC3)n2)cc1` [Compound 9, 2-(4-benzhydrylpiperazin-1-yl)-N-(4-p-tolylthiazol-2-yl)acetamide], for which the IC50 runs as follows: under setting [1], 2500 nM; under setting [2], 6400 nM.
As to `Cc1ccc(-c2csc(NC(=O)CN3CCN(C(c4ccc(F)cc4)c4ccc(F)cc4)CC3)n2)cc1` [Compound 10, 2-(4-(bis(4-fluorophenyl)methyl)piperazin-1-yl)-N-(4-p-tolylthiazol-2-yl)acetamide], the concentration for half-maximal inhibition (IC50) came out at 1910 nM under setting [1] and 3540 nM under setting [2].
`O=C(CN1CCN(C(c2ccccc2)c2ccccc2)CC1)Nc1nc2ccc(Cl)cc2s1` [Compound 11, 2-(4-benzhydrylpiperazin-1-yl)-N-(6-chlorobenzo[d]thiazol-2-yl)acetamide]: the half-maximal inhibitory concentration (IC50) was found to be 1600 nM under setting [1] and 3400 nM under setting [2].
In the same order, the values of `O=C(CN1CCN(C(c2ccc(F)cc2)c2ccc(F)cc2)CC1)Nc1nc2ccc(Cl)cc2s1` [Compound 12, 2-(4-(bis(4-fluorophenyl)methyl)piperazin-1-yl)-N-(6-chlorobenzo[d]thiazol-2-yl)acetamide] are 2560 nM and 4580 nM.
The like results for `O=C(CN1CCN(C(c2ccccc2)c2ccccc2)CC1)Nc1nc2ccccc2[nH]1` [Compound 14, 2-(4-benzhydrylpiperazin-1-yl)-N-(1H-benzo[d]imidazol-2-yl)acetamide] were, in that order, 250 nM and 290 nM.
`O=C(CN1CCN(C(c2ccccc2)c2ccccc2)CC1)Nc1nc2ccccc2s1` [Compound 16, 2-(4-benzhydrylpiperazin-1-yl)-N-(benzo[d]thiazol-2-yl)acetamide]: the half-maximal inhibitory concentration (IC50) runs as follows: under setting [1], 600 nM; under setting [2], 1210 nM.
Consider `O=C(CN1CCN(C(c2ccc(F)cc2)c2ccc(F)cc2)CC1)Nc1nc2ccccc2s1` [Compound 17, N-(benzo[d]thiazol-2-yl)-2-(4-(bis(4-fluorophenyl)methyl)piperazin-1-yl)acetamide], for which the concentration for half-maximal inhibition (IC50) reads like this: under setting [1], 530 nM; under setting [2], 2530 nM.
In the case of `O=C(CN1CCN(C(c2ccccc2)c2ccccc2)CC1)Nc1nc2ccc(OC(F)(F)F)cc2s1` [Compound 18, 2-(4-benzhydrylpiperazin-1-yl)-N-(6-trifluoromethoxybenzo[d]thiazol-2-yl)acetamide], the IC50 runs as follows: under setting [1], 1160 nM; under setting [2], 2900 nM.
In the case of `COc1ccc2nc(NC(=O)CN3CCN(C(c4ccccc4)c4ccccc4)CC3)sc2c1` [Compound 19, 2-(4-benzhydrylpiperazin-1-yl)-N-(6-methoxybenzo[d]thiazol-2-yl)acetamide], the half-inhibitory concentration (IC50) under setting [1] is 1540 nM and the IC50 under setting [2] stood at 3160 nM.
Take `CS(=O)(=O)c1ccc2nc(NC(=O)CN3CCN(C(c4ccccc4)c4ccccc4)CC3)sc2c1` [Compound 20, 2-(4-benzhydrylpiperazin-1-yl)-N-(6-mesylbenzo[d]thiazol-2-yl)acetamide]: the IC50 under setting [1] turned out to be 1640 nM and the half-maximal inhibitory concentration (IC50) under setting [2] amounted to 3130 nM.

Usually IC50 stands for the point on the concentration scale where inhibition reaches its midpoint.

Values taken from patent US20100029681A1, “HETEROCYCLIC COMPOUNDS AS CALCIUM CHANNEL BLOCKERS” (priority 2006, published 2010).
